Details: 298.15 K

O=C(C(=O)c1ccccc1)c1ccccc1
Details | solubility (mole fraction)
in 2,2,2-trifluoroethanol | 0.0352
in 2-butanone | 0.184
in 2-methyl-1-pentanol | 0.0139
in 3,7-dimethyl-1-octanol | 0.0173
in DMSO | 0.0228
in acetone | 0.16
in acetonitrile | 0.0635
in butyronitrile | 0.151
in chlorobenzene | 0.201
in cyclohexanone | 0.241
in diethyl ether | 0.0674
in diisopropyl ether | 0.0309
in methyl acetate | 0.152
in n-decane | 0.00855
in n-decanol | 0.0212
in n-hexadecane | 0.0118
in propionitrile | 0.129
in propylene carbonate | 0.094
in tert-butanol | 0.0106

— BigSolDB 2.1
